Columns and labels:
sTNFα production = assay: NB-monocyte co-culture, TNFα ELISA of supernatant; type: cell-based, human; details: 24 hours
Procedure: Monocytes were directly cultured with wild-type or TNF, TNFR1, TNFR2 KO NB cell lines in ULA plates for 24 hours. Activation of NF-kB in monocytes and NB was measured by flow cytometry and cytokine production measured by ELISA from co-culture supernatant. To evaluate the contact-dependence of monocyte activation by NB, monocytes were cultured in ULA plates with seven-day NB conditioned medium mixed 1:1 with complete monocyte medium for 24 hours and analyzed for IL-6 production. To assess the growth advantage of NB cultured with monocytes, NB-luc cell lines and monocytes were seeded in tissue culture-treated white 96-well plates (1:1 ratio) and cultured for four days. Luminescence was measured using a TECAN Spark plate reader (TECAN). To evaluate changes in proliferation, NB was pulsed for 10 minutes in CellTrace Violet (2 μM, Invitrogen) and seeded at 100,000 cells per well in a 12-well tissue culture-treated plate. Monocytes were added directly to the NB monolayer at a density of 100,000 per well and incubated for four days. CellTrace Violet expression was analyzed by flow cytometry.
Cytokines released by monocytes were detected within co-culture supernatants using the Human TNF-alpha Quantikine ELISA Kit (TNFα, R&D Systems) and the Human IL-6 Quantikine ELISA Kit (IL-6, R&D Systems) according to manufacturer's guidelines. ELISA plates were read using a TECAN Spark plate reader (TECAN). Global cytokine regulation was evaluated using a custom Luminex panel containing the following cytokines: CX3CL1, CXCL10, EGF, FGF-2, Flt3L, G-CSF, GM-CSF, IL-1α, IL-1β, IL-1Ra, IL-4, IL-6, IL-8, IL-10, IL-12 (p40), IL-12 (p′70), M-CSF, MCP-1, MCP-3, MDC, MIP-1α, MIP-1β, TGFα, TNFα, TNFβ, and VEGF-A (Human Cytokine Panel A, Millipore-Sigma).

murine CD31 = assay: Murine CD31 immunofluorescence of xenograft tumors (angiogenesis); type: in vivo, mouse; details: CHLA-255-luc/monocyte tumors
Text: (§1) (FIG. 17A) Tumors recovered from mice in FIG. 16 were snap frozen in OTC media, thin sectioned, and stained for murine CD31 expression (red) and DAPI counterstain (blue). Results shown are representative images from five fields of view (FOVs) per tumor, with five tumors per group. Scale bar 50 μm. (FIG. 17B) Total number of CD31+ regions per FOV with box and whisker plot showing quartiles±range (Ctrl n=15, Etan n=25). (FIG. 17C) Size of each CD31+ area quantified per FOV; shown is median CD31+ area per FOV with box and whisker plot showing quartiles±range (Ctrl n=15, Etan n=25) (FIG. 17D) Longest distance across each CD31+ area (Max Feret distance) per FOV; shown is median distance per FOV with box and whisker plot showing quartiles±range (Ctrl n=15, Etan n=25). (FIG. 17E) Eukaryotic mRNA-seq was performed on tumor samples, and mouse transcripts were excluded from analysis by XenoFilterR program. Differentially regulated genes were identified using two-fold expression difference and adjusted P value<0.05 as cutoffs.
Tumors from in vivo experiments were snap-frozen in OTC Media (Tissue-Tek, VWR) and cryo-sectioned into 5 μm thin sections (Texas Children's Hospital Histology Core, Houston, Tex.). Samples were fixed and permeabilized in ice-cold acetone for 10 minutes at −20 C and blocked in TBS containing 5% normal goat serum (CST) and 1% BSA (Sigma) for 2 hours at RT. Rat anti-mouse CD31 primary antibody (Invitrogen, clone 390) was diluted 1:10 in staining buffer (TBS, 1% NGS, 1% BSA) overnight at 4 C. […] Slides were counterstained with 1 μg/mL DAPI (BD Biosciences) for five minutes and mounted with fluorescence mounting media (Fluoromount G, Invitrogen). […] Images were processed and analyzed using FIJI/ImageJ software (NIH). To quantify CD31+ staining, images were thresholded (default, 1800 MIN, Infinity MAX), converted to binary, and analyzed using the FIJI/ImageJ “Analyze Particle” function excluding regions smaller than 25 μm2. […]

[1] = tested on: cytokines/chemokines in CHLA-255-monocyte co-cultures; assay: Multiplex Luminex cytokine array on co-culture supernatants; type: cell-based, human; details: CHLA-255 + monocytes, 10 μg/mL etanercept, 24 hours
SK-N-AS and monocytes = assay: Tumorsphere cluster formation in low attachment plates; type: cell-based, human; details: 10 μg/mL etanercept, 24 hours, ultra low attachment plates
[2] = tested on: NB tumor cell gene expression; assay: Eukaryotic mRNA-seq of xenograft tumors; type: in vivo; details: mouse transcripts, vs control tumors
Text: as §1, with “(FIG. 17E) Eukaryotic mRNA-seq was performed on tumor samples, and mouse transcripts were excluded from analysis by XenoFilterR program. Differentially regulated genes were identified using two-fold expression difference and adjusted P value<0.05 as cutoffs.” left out
Total RNA from cell pellets was isolated using the RNeasy Micro Plus Kit (Qiagen). […] Relative changes in gene expression were calculated based on the ΔCt method using housekeeping gene GAPDH as control. […]
Eukaryotic mRNA sequencing with 30M depth and 150 paired end reads was performed by Novogene, Inc. Quality control checks on FASTQ sequencing files were performed by FastQC (v0.11.2, https://www.bioinformatics.babraham.ac.uk/projects/fastqc/). Reads were then aligned to human (GRCh38, Ensembl release version 84) or mouse (GRCm38, Ensembl release version 81) reference genomes separately by hisat2 v2.1.0(51). […]

With etanercept the sTNFα production (sTNFα production; CHLA-255 + monocytes, 10 μg/mL etanercept, vs IgG control (FIG. 15A)) was “almost entirely blocked”, the “TNFα level in co-culture supernatant” value (sTNFα production; SK-N-AS + monocytes, vs IgG control) was “decrease” and the “vessel formation by CD31 immunofluorescence” value (murine CD31; vs IgG control) was “failed to form distinct vessels”. For the same substance, the “average area of CD31+ regions per FOV” value (murine CD31; vs control) was “significantly smaller”, the “vessel length (maximum linear distance across CD31+ regions)” value (murine CD31; vs control) was “significantly shorter” and the “induction/upregulation of G-CSF, GM-CSF, IL-1α, IL-1β, IL-6, IL-10, IL-12-p40, IP-10, MIP-1β” value [1] was “completely reversed the induction/upregulation of all nine cytokines/chemokines”. For the same substance, the “association of NB/monocytes into tumorsphere clusters” value (SK-N-AS and monocytes) was “blocking the ability of NB/monocytes to associate into tumorsphere clusters” and the “infiltration of erythrocytes, platelets, and neutrophils (mouse stroma gene expression)” value [2] was “reduced infiltration of erythrocytes, platelets, and neutrophils”.
